Patent US20170173060A1, “ACTIVATION OF THE ENDOGENOUS ILEAL BRAKE HORMONE PATHWAY FOR ORGAN REGENERATION AND RELATED COMPOSITIONS, METHODS OF TREATMENT, DIAGNOSTICS, AND REGULATORY SYSTEMS” (VOLANT HOLDINGS GMBH, priority 2014, published 2017)
“Also recorded” adds a separate entry of the source.

Columns and labels:
MIN-6 cells = settings: cited from earlier work
[1] = 1500 mg taken in three doses of 500 mg; cited from earlier work
[2] = test system: hypercholesterolemic New Zealand White rabbits; settings: cited from earlier work
C57BL/6J mice = settings: 1 mg/kg body weight, cited from earlier work
patients with RA = settings: human, in vivo; cited from earlier work
[3] = test system: high-risk cardiovascular disease (CVD) patients; settings: cited from earlier work
people with stable COPD = settings: in vivo; cited from earlier work
[4] = test system: patients with initial abnormal values; experiment: Rate of change of weight, HBA1c, HDL, TG and AST in RYGB, Brake, combination and control patients (FIGS. 18-22); assay type: in vivo, human
[5] = test system: patients with metabolic syndrome; experiment: FS index of metabolic syndrome tracked over time in patient groups (neural net model); assay type: in vivo, human
Description: The FS index (Fayad/Schentag) of MS (the relevant equation for which appears in attached FIG. 15) considers the following: Fasting Blood Glucose, Fasting Insulin, HBA1c, BMI, AST, Triglycerides, Glucose Supply-Demand (SD) index, and Proinsulin. Each parameter is mathematically arranged to increase as MS worsens, and weighted approximately equally in the prediction of MS progression and risk for organ damage.
The FS index was then applied to well-studied patient populations already in databases, using a neural net model and the equation set forth in FIG. 15 (and as above). The database included previously published 50 patients with T2D having CV events principally myocardial infarctions, and controls of a precisely matched group of T2D patients without these events (2, 3). […] For each study patient, we had complete access to all raw data, measured vital signs, culture results, and clinician assessments. […]
FS index values were calculated from serial laboratory and clinical data over timeframes ranging between 2 and 10 years. […]
The FS index was applied to well-studied patient populations already in our databases, using a neural net model. […] FS index values were calculated from serial laboratory and clinical data over timeframes ranging 2-10 years. […]

[6] = Case of patient (T2D, chronic hepatitis B, steatosis) on Januvia and Brake; assay type: in vivo, human; settings: 6 months after stopping Brake, sitagliptin continued
Procedure: Both their Triglycerides and hepatic enzymes were 2-3× elevated. […] Their diabetic control deteriorated on this regimen, to the point where they were considered a candidate for insulin. As an alternative, patient was started on Januvia (sitagliptin) 100 mg per day and 7 pills of Brake™. After 6 months treatment, their HBA1c became normal at 6.0, indicating pancreatic regeneration from the combination product. […] They lost 35 lbs. After 6 months, they stopped the Brake™ therapy but continued sitagliptin. By 6 months later they began to gain weight and their HBA1c rose above 6.0, whereupon they resumed taking Brake™ tablets with return of their HBA1c to normal once again. This case taught the inventors that Brake™ associated organ regeneration is a long lived effect of the combination but not a permanent effect. In fact it is often notable that RYGB patients lose the effects of the surgical procedure after two or more years, and it appears that resumption of dietary indiscretion leads to recrudescence of the metabolic syndrome. Patients are thus advised to be vigilant, particularly if weight gain resumes.

[7] = test system: human abdominal subcutaneous (AbdSc) adipocytes; settings: cited from earlier work

Compound: COc1cc(/C=C(\C#N)C(N)=O)cc(CSc2nc3ccccc3s2)c1O [AG825]
- effect on BTC proliferative effect (MIN-6 cells): blocked

Compound: COc1cc2ncnc(Nc3cccc(Cl)c3)c2cc1OC [AG1478]
- effect on BTC proliferative effect (MIN-6 cells): blocked

Compound: COc1ccc2cc3[n+](cc2c1OC)CCc1cc2c(cc1-3)OCO2 [Berberine]
- anti-diabetic effects (biomarkers of type 2 diabetes) [1]: appear to be equal to those of 1500 mg Metformin or 4 mg Glibenclamide

Compound: CCCCCCCCCCC(C)(C)C(=O)Nc1c(OC)cc(OC)cc1OC [CI-976, 2,2-dimethyl-N-(2,4,6-trimethoxyphenyl) dodecanamide]
- decrease of cholesteryl ester enrichment in thoracic aorta ([2]; rabbit, in vivo): 46%
- effect on plasma triglycerides ([2]; rabbit, in vivo): no effect
- reduction of foam cell area in iliac-femoral lesion ([2]; relative to the initiation of intervention, dose that did not lower plasma cholesterol): 27-29%

Compound: CC(C)=CCC[C@](C)(O)[C@H]1CC[C@]2(C)[C@@H]1[C@H](O)C[C@@H]1[C@@]3(C)CC[C@H](O[C@@H]4O[C@H](CO)[C@@H](O)[C@H](O)[C@H]4O)C(C)(C)[C@@H]3CC[C@]12C [GS-Rh2, ginsenoside Rh2]
- glycemia and glucose tolerance (C57BL/6J mice; within 14 days post-PPx): improved glycemia and glucose tolerance
- beta-cell proliferation (C57BL/6J mice): increased beta-cell proliferation percentages

Compound: CN(Cc1cnc2nc(N)nc(N)c2n1)c1ccc(C(=O)N[C@@H](CCC(=O)O)C(=O)O)cc1 [MTX, Methotrexate]
- risk of CVD events (patients with RA): associated with a reduced risk of CVD events

Compound: COc1cc(OC)c2c(=O)[nH]c(-c3cc(C)c(OCCO)c(C)c3)nc2c1 [RVX-208]
- change of ratio of necrotic core to dense calcium (NC/DC) ([3]; VH-IVUS, treated patients n=61): −7.5%
- incidence of MACE lower vs. placebo ([3]; patients with hsCRP >2.0 mg/dL): 63%

Compound: O=C(Nc1c(Cl)cncc1Cl)c1ccc(OC(F)F)c(OCC2CC2)c1 [Roflumilast]
- body weight during the trial period (people with stable COPD): weight loss

Compound: CC(C)c1c(C(=O)Nc2ccccc2)c(-c2ccccc2)c(-c2ccc(F)cc2)n1CC[C@@H](O)C[C@@H](O)CC(=O)O [atorvastatin]
- HDL change ([4]; FIG. 20, control patients mostly atorvastatin 10 mg): essentially no change in HDL
- triglyceride (TG) changes ([4]; FIG. 21): either stayed the same or had a minor drop in TG
- AST concentrations and rate of change ([4]; FIG. 22): little effect on hepatic inflammation

Compound: CN(C)C(=N)N=C(N)N [metformin]
- weight change ([4]; FIG. 18): either stayed the same or lost a few pounds
- HBA1c change ([4]; FIG. 19): either stayed the same or had a minor drop in HBA1c
- effect on metabolic syndrome biomarkers when given alone ([4]; FIGS. 18-21 control patients): little effect
- parameters that would indicate regeneration ([5]; control patients, even at dosages of 2.0 grams daily): no significant change
- pattern of FS index over time ([5]; metformin alone, 61 patients (FIG. 5)): rises; also recorded: flat or slowly rising

Compound: N[C@@H](CC(=O)N1CCn2c(nnc2C(F)(F)F)C1)Cc1cc(F)c(F)cc1F [sitagliptin]
- HBA1c [6]: above 6.0

Compound: lipopolysaccharide [LPS]
- TLR-2 protein expression increase [7]: twofold
- TNF-alpha secretion ([7]; control 1.0+/-0.83): 32.8 ± 6.23 pg/mL
- IL-6 secretion ([7]; control 2.7+/-0.5): 4.8 ± 0.3 ng/mL
